The target in one assay is T1, JAK1 (Homo sapiens, UniProt P23458).
T1 construct: 5 μl of catalytic domain recombinant Kinase enzyme+Tyr peptide substrate (Invitrogen, CA); purchased Invitrogen
Put plainly: Z'-LYTE kinase assay JAK1. Format: biochemical. The method in brief:
(§1)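 In duplicate wells, each test molecule (1% final DMSO) is incubated with recombinant kinase catalytic domain, Tyr6 peptide substrate and ATP for one hour at room temperature; a site-specific protease is then added for another hour before fluorescence reading.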

A further assay concerns the target T2, JAK2 (Homo sapiens, UniProt O60674).
T2 construct: 5 μl of catalytic domain recombinant Kinase enzyme+Tyr peptide substrate (Invitrogen, CA); purchased Invitrogen
Put plainly: Z'-LYTE kinase assay JAK2. Format: biochemical. In outline: as §1

The next assay addresses T3, JAK3 (Homo sapiens, UniProt P52333).
T3 construct: 5 μl of catalytic domain recombinant Kinase enzyme+Tyr peptide substrate (Invitrogen, CA); purchased Invitrogen
The experiment in a line: Z'-LYTE kinase assay JAK3. Type of assay: biochemical. In outline: as §1

In assay [1] the test system is JAK1/3 signaling to STAT6 in Ramos B cells. The experiment in a line: IL4 stimulation of JAK1/3 signaling to STAT6 in Ramos B cells (pSTAT6 Y641, FACS). Type of assay: cell-based. The settings on record: Homo sapiens; for inhibition at 1 µM: 1.0 uM compound, read-out: IL-4/STAT6 in Ramos Percent Inhibition at 1.0 uM; for inhibition at 0.2 µM: 0.2 uM compound, read-out: IL-4/STAT6 in Ramos Percent Inhibition at 0.2 uM. The procedure: IL4 stimulation of JAK1/3 signaling to STATE in Ramos B cells:
As an alternative strategy to measure effect of JAK3 inhibitors on JAK1/3 dependent cytokine signaling pathways, IL4 stimulation of the Ramos Burkett's B cell line is used. IL4 engages a receptor consisting of the IL4 receptor alpha chain and the common gamma chain. […] Ramos B cells are suspended in tissue culture media containing 10% fetal calf serum at 10×10̂6 cells/ml. 100 μl aliquots are pre-treated for 1 hour with various concentrations of compound, and then stimulated for 15 minutes with 15 ng IL4. The signaling reaction is terminated by fixing in 2% paraformaldehyde for 10 minutes at room temperature. Fixed cells are then washed and permeablized by suspension in 100% methanol at −80° C. Following overnight incubation at 4° C., cells are washed and resuspended in PBS containing 0.5% bovine serum albumin containing pSTAT6 Y641-PE conjugated antibody. After 1 hour incubation, cells are washed and the extent of STAT6 phosphorlyation in Ramos cells is measured by FACS analysis.

This passage reports IC50 and inhibition results from patent US20150353495A1 (PORTOLA PHARMACEUTICALS, INC., priority 2010, published 2015).

T1 sequence (P23458 875-1153 limits assumed): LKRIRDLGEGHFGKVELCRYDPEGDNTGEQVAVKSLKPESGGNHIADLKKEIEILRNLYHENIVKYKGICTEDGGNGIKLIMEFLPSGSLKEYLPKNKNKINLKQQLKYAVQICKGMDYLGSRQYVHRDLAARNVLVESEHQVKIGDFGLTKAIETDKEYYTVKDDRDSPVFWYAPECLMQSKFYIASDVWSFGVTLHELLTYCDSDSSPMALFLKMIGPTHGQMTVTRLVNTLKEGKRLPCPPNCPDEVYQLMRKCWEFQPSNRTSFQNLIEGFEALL
T2 sequence (O60674 849-1124 limits assumed): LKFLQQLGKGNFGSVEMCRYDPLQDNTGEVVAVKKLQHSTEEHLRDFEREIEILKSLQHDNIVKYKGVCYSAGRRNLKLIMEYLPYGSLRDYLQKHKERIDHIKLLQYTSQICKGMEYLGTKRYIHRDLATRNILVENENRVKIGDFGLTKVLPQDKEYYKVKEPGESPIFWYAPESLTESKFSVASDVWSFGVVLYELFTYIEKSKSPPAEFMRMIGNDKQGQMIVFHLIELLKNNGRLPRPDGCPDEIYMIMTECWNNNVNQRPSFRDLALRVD
T3 sequence (P52333 822-1111 limits assumed): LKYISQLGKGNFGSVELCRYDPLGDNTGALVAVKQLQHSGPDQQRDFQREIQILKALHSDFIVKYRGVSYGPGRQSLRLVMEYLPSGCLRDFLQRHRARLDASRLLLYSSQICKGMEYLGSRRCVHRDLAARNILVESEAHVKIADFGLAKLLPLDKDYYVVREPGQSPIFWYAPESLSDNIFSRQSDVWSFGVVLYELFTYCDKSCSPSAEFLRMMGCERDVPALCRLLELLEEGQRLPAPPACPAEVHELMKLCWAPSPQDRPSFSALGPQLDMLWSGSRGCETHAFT

Regarding `NC(=O)c1cnc(Nc2cccc(N3CCCCC3)c2)cc1NCc1cccc(F)c1` [Example 68, 4-(3-fluorobenzylamino)-6-(3-(piperidin-1-yl)phenylamino)nicotinamide], the IC50 at JAK1 was greater than 1 µM; at JAK2, 0.1 to 1 µM; on JAK3, 0.01 to 0.1 µM. The inhibition at 1 µM in assay [1] came out at 7%.

For `NC(=O)c1cnc(Nc2cccc(N3CCCCC3)c2)cc1N[C@H](CO)c1ccccc1` [Example 76, (S)-4-(2-hydroxy-1-phenylethylamino)-6-(3-(piperidin-1-yl)phenylamino)nicotinamide], the figures for the IC50 against JAK1, at JAK2 and on JAK3 were greater than 1 µM, greater than 1 µM and 0.01 to 0.1 µM, respectively. Further, in assay [1], the inhibition at 0.2 µM was 8%. Also, the inhibition at 1 µM in assay [1] is 20%.

For `COc1ccc(Nc2cc(NCc3c(F)cccc3F)c(C(N)=O)cn2)cc1` [Example 82, 4-(2,6-difluorobenzylamino)-6-(4-methoxyphenylamino)nicotinamide], the IC50 was 0.1 to 1 µM against JAK1, 0.1 to 1 µM against JAK2 and 0.01 to 0.1 µM on JAK3. The inhibition at 0.2 µM in assay [1] was found to be 7%. Further, the inhibition at 1 µM in assay [1] is 34%.

As to `COc1ccc(Nc2cc(NCc3cc(F)ccc3F)c(C(N)=O)cn2)cc1` [Example 83, 4-(2,5-difluorobenzylamino)-6-(4-methoxyphenylamino)nicotinamide], the concentration for half-maximal inhibition (IC50) against JAK1 lay within 0.1 to 1 µM; against JAK2 it was 0.1 to 1 µM; at JAK3 it was 0.01 to 0.1 µM. In addition, the inhibition at 0.2 µM in assay [1] was 10%. Further, in assay [1], the inhibition at 1 µM was found to be 23%.

For `NC(=O)c1cnc(Nc2ccc3c(c2)NC(=O)CO3)cc1NCc1ccccc1` [Example 84, 4-(benzylamino)-6-(3-oxo-3,4-dihydro-2H-benzo[b][1,4]oxazin-6-ylamino)nicotinamide], the 50% inhibitory concentration (IC50) was greater than 1 µM at JAK1, 0.1 to 1 µM against JAK2 and 0.01 to 0.1 µM against JAK3. Further, the inhibition at 0.2 µM in assay [1] worked out at 3%. In assay [1], the inhibition at 1 µM was found to be 8%.

With `COc1ccc(Nc2cc(NCc3cccc(F)c3)c(C(N)=O)cn2)cc1` [Example 91, 4-(3-fluorobenzylamino)-6-(4-methoxyphenylamino)nicotinamide], the results for the IC50 against JAK1, against JAK2 and against JAK3 were greater than 1 µM, 0.1 to 1 µM and 0.01 to 0.1 µM, respectively. Moreover, the inhibition at 0.2 µM in assay [1] is 6%. In addition, the inhibition at 1 µM in assay [1] amounted to 16%.

Take `NC(=O)c1cnc(Nc2ccc(C(=O)N3CCC3)cc2)cc1NCc1cc(F)ccc1F` [Example 93, 6-(4-(azetidine-1-carbonyl)phenylamino)-4-(2,5-difluorobenzylamino)nicotinamide]: the half-inhibitory concentration (IC50) against JAK1 lay in the range of 0.01 to 0.1 µM; against JAK2 it was 0.01 to 0.1 µM; on JAK3 it was 0.001 to 0.01 µM. Further, the inhibition at 0.2 µM in assay [1] is 43%. The inhibition at 1 µM in assay [1] stood at 76%.

On to `CC(C)N1CCC(c2ccc(Nc3cc(NCc4ccccc4F)c(C(N)=O)cn3)cc2)CC1` [Example 108, 4-(2-fluorobenzylamino)-6-(4-(1-isopropylpiperidin-4-yl)phenylamino)nicotinamide], for which the IC50 against JAK1 fell in the range of 0.1 to 1 µM; against JAK2, 0.01 to 0.1 µM; on JAK3, 0.001 to 0.01 µM. Moreover, in assay [1], the inhibition at 0.2 µM is 14%. The inhibition at 1 µM in assay [1] stood at 37%.

On to `NC(=O)c1cnc(Nc2cccc(C3CCN(C4CCCC4)CC3)c2)cc1NCc1ccccc1F` [Example 110, 6-(3-(1-cyclopentylpiperidin-4-yl)phenylamino)-4-(2-fluorobenzylamino)nicotinamide], for which the IC50 at JAK1 was in the range of 0.1 to 1 µM; on JAK2 it was 0.01 to 0.1 µM; against JAK3, 0.001 to 0.01 µM. Besides, in assay [1], the inhibition at 0.2 µM amounted to 24%. Also, in assay [1], the inhibition at 1 µM stood at 68%.

For `CS(=O)(=O)N1CCC(c2ccc(Nc3cc(NCc4ccccc4F)c(C(N)=O)cn3)cc2)CC1` [Example 111, 4-(2-fluorobenzylamino)-6-(4-(1-(methylsulfonyl)piperidin-4-yl)phenylamino)nicotinamide], the IC50 is greater than 1 µM at JAK1, greater than 1 µM on JAK2 and 0.01 to 0.1 µM at JAK3. In assay [1], the inhibition at 0.2 µM was determined as 22%. Further, the inhibition at 1 µM in assay [1] came out at 46%.

Consider `CCS(=O)(=O)N1CCC(c2ccc(Nc3cc(NCc4ccccc4F)c(C(N)=O)cn3)cc2)CC1` [Example 112, 6-(4-(1-(ethylsulfonyl)piperidin-4-yl)phenylamino)-4-(2-fluorobenzylamino)nicotinamide], for which the IC50 on JAK1 was greater than 1 µM; against JAK2, greater than 1 µM; against JAK3 it was 0.01 to 0.1 µM. Moreover, in assay [1], the inhibition at 0.2 µM was determined as 8%. For the same molecule, in assay [1], the inhibition at 1 µM worked out at 42%.

For `CN(C)C(=O)N1CCC(c2ccc(Nc3cc(NCc4ccccc4F)c(C(N)=O)cn3)cc2)CC1` [Example 114, 6-(4-(1-(dimethylcarbamoyl)piperidin-4-yl)phenylamino)-4-(2-fluorobenzylamino)nicotinamide], the IC50 is greater than 1 µM at JAK1, 0.1 to 1 µM on JAK2 and 0.01 to 0.1 µM against JAK3. Moreover, the inhibition at 0.2 µM in assay [1] is 14%. Also, the inhibition at 1 µM in assay [1] was 51%.

Turning to `NC(=O)c1cnc(Nc2cccc(OCCN3CCOCC3)c2)cc1NC(CO)c1ccccc1` (centres unmarked) [Example 230], in assay [1], the inhibition at 0.2 µM came to 21% and the inhibition at 1 µM was found to be 36%.

As to `CC(=O)N1CCN(c2ccc(Nc3cc(NC(CO)c4ccccc4)c(C(N)=O)cn3)cc2)CC1` (centres unmarked) [Example 231], in assay [1], the inhibition at 0.2 µM was 13% and the inhibition at 1 µM was found to be 16%.

As for `NC(=O)c1cnc(Nc2cccc(NC(=O)N3CCOCC3)c2)cc1NCc1cccnc1` [Example 232], in assay [1], the inhibition at 0.2 µM stood at 4% and the inhibition at 1 µM was determined as 5%.

For the molecule `CCC(=O)N1CC(c2ccc(Nc3cc(NCc4cccc5ccsc45)c(C(N)=O)cn3)cc2)C1` [Example 491, 4-(benzo[b]thiophen-7-ylmethylamino)-6-(4-(1-propionylazetidin-3-yl)phenylamino)nicotinamide], the concentration for half-maximal inhibition (IC50) fell in the range of 0.1 to 1 µM against JAK1, 0.01 to 0.1 µM against JAK2 and 0.001 to 0.01 µM on JAK3.

Take `CCC(=O)N1CC(c2ccc(Nc3cc(NCc4cccc5[nH]ccc45)c(C(N)=O)cn3)cc2)C1` [Example 492, 4-((1H-indol-4-yl)methylamino)-6-(4-(1-propionylazetidin-3-yl)phenylamino)nicotinamide]: the concentration for half-maximal inhibition (IC50) at JAK1 was 0.01 to 0.1 µM; at JAK2 it was 0.001 to 0.01 µM; against JAK3, 0.001 to 0.01 µM.

Take `COCC(=O)N1CC(c2ccc(Nc3cc(NCc4cccc(F)n4)c(C(N)=O)cn3)cc2)C1` [Example 493, 4-((6-fluoropyridin-2-yl)methylamino)-6-(4-(1-(2-methoxyacetyl)azetidin-3-yl)phenylamino)nicotinamide]: the IC50 against JAK1 fell in the range of 0.1 to 1 µM; on JAK2, 0.1 to 1 µM; at JAK3, 0.01 to 0.1 µM.

With `COCC(=O)N1CC(c2ccc(Nc3cc(NCc4cccc5[nH]ccc45)c(C(N)=O)cn3)cc2)C1` [Example 494, 4-((1H-indol-4-yl)methylamino)-6-(4-(1-(2-methoxyacetyl)azetidin-3-yl)phenylamino)nicotinamide], the half-inhibitory concentration (IC50) on JAK1 is 0.001 to 0.01 µM; at JAK2 it was 0.001 to 0.01 µM; against JAK3, less than 0.001 µM.

As for `COCC(=O)N1CC(c2ccc(Nc3cc(NCc4cccc5ccsc45)c(C(N)=O)cn3)cc2)C1` [Example 495, 4-(benzo[b]thiophen-7-ylmethylamino)-6-(4-(1-(2-methoxyacetyl)azetidin-3-yl)phenylamino)nicotinamide], the results for the concentration for half-maximal inhibition (IC50) at JAK1, against JAK2 and at JAK3 were 0.1 to 1 µM, 0.01 to 0.1 µM and 0.001 to 0.01 µM, respectively.
